“And” between values parts separate entries of the source, which are not always exact repeats. Identical values can stand only once. Toxic doses and inconclusive results are not listed. Rule for the calls: active = survival T/C of 150% or more; inactive = T/C below 125% in these data.
Tested on: CD2F1 mice, L1210 leukemia ip, survival T/C
Test: NCI In Vivo Anticancer Drug Screen. Data for tumor model L1210 Leukemia (intraperitoneal) in CD2F1 (CDF1) mice
Settings: higher = longer survival
Procedure, shortened: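 Read-out first: treated-group measurement over vehicle-control measurement, expressed as a ratio. Animals bore a transplanted tumor line and were dosed with compound or vehicle.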

[1] = endpoint: mean survival time, dose: 100.0 mg/kg/injection, schedule: Q04DX002 (ip), vehicle: saline with Tween-80
[2] = endpoint: mean survival time, dose: 200.0 mg/kg/injection, schedule: Q04DX002 (ip), vehicle: saline with Tween-80
[3] = endpoint: mean survival time, dose: 50.0 mg/kg/injection, schedule: Q01DX009 (ip), vehicle: saline with Tween-80
[4] = endpoint: mean survival time, dose: 100.0 mg/kg/injection, schedule: Q01DX009 (ip), vehicle: saline with Tween-80
[5] = endpoint: mean survival time, dose: 200.0 mg/kg/injection, schedule: Q01DX009 (ip), vehicle: saline with Tween-80
[6] = endpoint: mean survival time, dose: 100.0 mg/kg/injection, schedule: Q04DX003 (ip), vehicle: saline with Tween-80
[7] = endpoint: mean survival time, dose: 200.0 mg/kg/injection, schedule: Q04DX003 (ip), vehicle: saline with Tween-80
[8] = endpoint: mean survival time, dose: 400.0 mg/kg/injection, schedule: Q04DX003 (ip), vehicle: saline with Tween-80
[9] = endpoint: mean survival time, dose: 25.0 mg/kg/injection, schedule: Q04DX003 (ip), vehicle: saline with Tween-80

Measured: T/C

COC(=O)C([NH-])c1ccccc1.COC(=O)C([NH-])c1ccccc1.[Cl][Pt+2][Cl] (centres undefined)
inactive: endpoint: median survival time, dose: 3.12 mg/kg/injection, schedule: Q04DX003 (ip), vehicle: saline 101 % of control | endpoint: median survival time, dose: 6.25 mg/kg/injection, schedule: Q04DX003 (ip), vehicle: saline 100 % of control | endpoint: median survival time, dose: 12.5 mg/kg/injection, schedule: Q04DX003 (ip), vehicle: saline 100 % of control | endpoint: median survival time, dose: 25.0 mg/kg/injection, schedule: Q04DX003 (ip), vehicle: saline 101 % of control | endpoint: median survival time, dose: 50.0 mg/kg/injection, schedule: Q04DX003 (ip), vehicle: saline 101 % of control | endpoint: median survival time, dose: 100.0 mg/kg/injection, schedule: Q04DX003 (ip), vehicle: saline 103 % of control

BrC/C(=N\N1CCCCC1)c1ccc(Br)cc1
inactive: endpoint: mean survival time, dose: 25.0 mg/kg/injection, schedule: Q01DX009 (ip), vehicle: saline sonified 100 % of control | endpoint: mean survival time, dose: 50.0 mg/kg/injection, schedule: Q01DX009 (ip), vehicle: saline sonified 96 % of control | endpoint: mean survival time, dose: 100.0 mg/kg/injection, schedule: Q01DX001 (ip), vehicle: saline 94 % of control | endpoint: mean survival time, dose: 100.0 mg/kg/injection, schedule: Q01DX009 (ip), vehicle: saline sonified 96 % of control | endpoint: mean survival time, dose: 200.0 mg/kg/injection, schedule: Q01DX001 (ip), vehicle: saline 102 % of control | endpoint: mean survival time, dose: 400.0 mg/kg/injection, schedule: Q01DX001 (ip), vehicle: saline 95 % of control

O=C1C=Cc2ccccc2/C1=C/c1nc(/C=C/c2ccccc2)oc1O
inactive: [1] 117 % of control | [2] 113 % of control | endpoint: mean survival time, dose: 400.0 mg/kg/injection, schedule: Q04DX002 (ip), vehicle: saline with Tween-80 105 % of control

COC(=O)C1C(C(C)=O)C2C(=O)C3C(C(=O)OC)C(C(=O)OC)C3C(=O)C12 (centres undefined)
inactive: endpoint: mean survival time, dose: 25.0 mg/kg/injection, schedule: Q04DX002 (ip), vehicle: saline with Tween-80 93 % of control | endpoint: mean survival time, dose: 50.0 mg/kg/injection, schedule: Q04DX002 (ip), vehicle: saline with Tween-80 96 % of control | [1] 100 % of control | [2] 96 % of control

NN1CCOC1=O
inactive: endpoint: mean survival time, dose: 100.0 mg/kg/injection, schedule: Q01DX001 (ip), vehicle: saline with Tween-80 97 % of control | endpoint: mean survival time, dose: 200.0 mg/kg/injection, schedule: Q01DX001 (ip), vehicle: saline with Tween-80 100 % of control

O=C(O)CN(CC(=O)O)C1CCCCC1N(CC(=O)O)CC(=O)O.[Cl][Pd][Cl] (centres undefined)
inactive: endpoint: median survival time, dose: 10.0 mg/kg/injection, schedule: Q04DX003 (ip), vehicle: saline 103 % of control | endpoint: median survival time, dose: 20.0 mg/kg/injection, schedule: Q04DX003 (ip), vehicle: saline 100 % of control | endpoint: median survival time, dose: 40.0 mg/kg/injection, schedule: Q04DX003 (ip), vehicle: saline 103 % of control | endpoint: median survival time, dose: 80.0 mg/kg/injection, schedule: Q04DX003 (ip), vehicle: saline 103 % of control and 106 % of control | endpoint: median survival time, dose: 160.0 mg/kg/injection, schedule: Q04DX003 (ip), vehicle: saline 98 % of control

Cc1cn(C2OC(CO)C(O)C2O)c(=O)nc1N (centres undefined)
inactive: endpoint: median survival time, dose: 25.0 mg/kg/injection, schedule: Q01DX005 (ip), vehicle: water 96 % of control | endpoint: median survival time, dose: 50.0 mg/kg/injection, schedule: Q01DX005 (ip), vehicle: water 104 % of control | endpoint: median survival time, dose: 100.0 mg/kg/injection, schedule: Q01DX005 (ip), vehicle: water 104 % of control | endpoint: median survival time, dose: 200.0 mg/kg/injection, schedule: Q01DX005 (ip), vehicle: water 104 % of control

CCNC(=S)Nc1ccccc1
inactive: [3] 103 % of control | [4] 100 % of control | [5] 111 % of control

OCCN1CCN(CCCN2c3ccccc3Sc3ccc(Cl)cc32)CC1
inactive: endpoint: mean survival time, dose: 6.25 mg/kg/injection, schedule: Q01DX009 (ip), vehicle: Klucel (hydroxypropylcellulose) (HPC) 93 % of control | endpoint: mean survival time, dose: 6.25 mg/kg/injection, schedule: Q04DX002 (ip), vehicle: Klucel (hydroxypropylcellulose) (HPC) 96 % of control | endpoint: mean survival time, dose: 12.5 mg/kg/injection, schedule: Q01DX009 (ip), vehicle: Klucel (hydroxypropylcellulose) (HPC) 96 % of control | endpoint: mean survival time, dose: 12.5 mg/kg/injection, schedule: Q04DX002 (ip), vehicle: Klucel (hydroxypropylcellulose) (HPC) 91 % of control | endpoint: mean survival time, dose: 25.0 mg/kg/injection, schedule: Q01DX009 (ip), vehicle: Klucel (hydroxypropylcellulose) (HPC) 116 % of control | endpoint: mean survival time, dose: 25.0 mg/kg/injection, schedule: Q04DX003 (ip), vehicle: saline 108 % of control and 110 % of control | endpoint: mean survival time, dose: 25.0 mg/kg/injection, schedule: Q04DX009 (ip), vehicle: Klucel (hydroxypropylcellulose) (HPC) 113 % of control | endpoint: mean survival time, dose: 50.0 mg/kg/injection, schedule: Q04DX003 (ip), vehicle: saline 110 % of control | endpoint: mean survival time, dose: 200.0 mg/kg/injection, schedule: Q04DX003 (ip), vehicle: saline 116 % of control

O=C(O)/C=C/C(=O)Nc1cccc2cccnc12
inactive: [4] 93 % of control | [6] 98 % of control | [5] 102 % of control | [7] 93 % of control | endpoint: mean survival time, dose: 400.0 mg/kg/injection, schedule: Q01DX009 (ip), vehicle: saline with Tween-80 100 % of control | [8] 98 % of control

CC1(C)N=C(N)N=C(N)N1c1ccc(OCCCCNC(=O)c2cccc(S(=O)(=O)F)c2)c(Cl)c1
inactive: endpoint: mean survival time, dose: 5.0 mg/kg/injection, schedule: Q01DX001 (ip), vehicle: saline with Tween-80 105 % of control | endpoint: mean survival time, dose: 5.0 mg/kg/injection, schedule: Q01DX009 (ip), vehicle: saline 102 % of control | endpoint: mean survival time, dose: 10.0 mg/kg/injection, schedule: Q01DX001 (ip), vehicle: saline with Tween-80 95 % of control | endpoint: mean survival time, dose: 10.0 mg/kg/injection, schedule: Q01DX009 (ip), vehicle: saline 98 % of control | endpoint: mean survival time, dose: 20.0 mg/kg/injection, schedule: Q01DX001 (ip), vehicle: saline with Tween-80 94 % of control | endpoint: mean survival time, dose: 20.0 mg/kg/injection, schedule: Q01DX009 (ip), vehicle: saline 98 % of control

Cc1cccc(Cl)c1NC(=O)CS
inactive: [6] 98 % of control | [7] 98 % of control | [8] 98 % of control

C1CCCC(NC2=NCCO2)CC1
inactive: endpoint: mean survival time, dose: 6.25 mg/kg/injection, schedule: Q04DX003 (ip), vehicle: saline with Tween-80 98 % of control | endpoint: mean survival time, dose: 12.5 mg/kg/injection, schedule: Q04DX003 (ip), vehicle: saline with Tween-80 97 % of control | [9] 98 % of control

Clc1nc[nH]c1Cl
inactive: endpoint: mean survival time, dose: 25.0 mg/kg/injection, schedule: Q01DX009 (ip), vehicle: saline with Tween-80 97 % of control | [3] 95 % of control | [4] 97 % of control | [6] 95 % of control

C1=CSCCC1
inactive: endpoint: mean survival time, dose: 25.0 mg/kg/injection, schedule: Q04DX002 (ip), vehicle: saline + alcohol 102 % of control | endpoint: mean survival time, dose: 50.0 mg/kg/injection, schedule: Q04DX002 (ip), vehicle: saline + alcohol 94 % of control | endpoint: mean survival time, dose: 100.0 mg/kg/injection, schedule: Q04DX002 (ip), vehicle: saline + alcohol 90 % of control

CCOC(=O)/C=C/c1ccc2c(c1)OCO2
inactive: [6] 97 % of control | [7] 94 % of control | [8] 103 % of control

COc1ccccc1OC(=O)Nc1ccc(C)c([N+](=O)[O-])c1
inactive: [9] 96 % of control | endpoint: mean survival time, dose: 50.0 mg/kg/injection, schedule: Q04DX003 (ip), vehicle: saline with Tween-80 93 % of control | [6] 98 % of control and 103 % of control | [8] 97 % of control

— PubChem BioAssay AID256 (DTP/NCI, 2004)
